Where a SMILES comes first, the peptide text is derived from it. [ ]: non-standard residue; d: D form. dPhe(4-Cl) = N[C@H](Cc1ccc(Cl)cc1)C(=O)O; d2Nal = N[C@H](Cc1ccc2ccccc2c1)C(=O)O; dCit = NC(=O)NCCC[C@@H](N)C(=O)O; d3Pal = N[C@H](Cc1cccnc1)C(=O)O
Tests used:
normal human T-cells [1] = experiment: Quantitative RT-PCR of 67 kDa laminin receptor mRNA in T-cells; format: cell-based
normal human T-cells [2] = experiment: Double immunofluorescence staining (FACS) for surface 67 kDa laminin receptor and TCR; format: cell-based
Method: Normal human T-cells, isolated from fresh peripheral blood lymphocytes, or EL-4 T-lymphocyte cells were subjected to double immunofluorescence staining, using a mouse monoclonal anti-67 kDa LR antibody (100 μl of 1:20 dilution per 1×10^6 cells/tube; 30 minutes on ice), or normal mouse sera for control. The cells were then stained with an FITC-conjugated goat anti-mouse IgG (100 μl of 1:100 dilution), and PE-conjugated mouse anti-human TCR αβ mAb (2 μl of stock). Cells that were stained only with the second and third antibodies served as additional negative controls. Fluorescence profiles were recorded in a FACSORT. To determine whether GnRH-II and GnRH-I trigger not only the gene transcription but also the surface expression of the 67 kDa LR, normal human T-cells were treated with either GnRH-II or GnRH-I for 18-66 h and subjected to double immunofluorescence staining using a monoclonal antibody (mAb) that is specific for the 67 kDa LR, and a phycoerythrin (PE)-conjugated anti-TCRαβ mAb (to confirm the T-cell origin of the cells). FIGS. 2A-2C show the staining for the untreated, GnRH-I treated and GnRH-II treated T-cells, respectively. The FACS profiles can be interpreted by division according to four categories: 1. Negative staining for both mAbs (double negative, lower left quadrant); 2. Single positive staining only with the anti-LR mAb (lower right quadrant), 3. Single positive staining only with the anti-TCR mAb (upper left quadrant); 4. Double positive staining with both mAbs (upper right quadrant). […] In different experiments, each using freshly isolated T-cells from a different human donor, both GnRH II and GnRH I repeatedly elevated the laminin receptor expression level, but the magnitude of elevation varied within a range of 6-40%. Such variations between T-cell populations originating from different donors are often observed in respect to various T-cell features and functions.

**Q.** `CC(=O)N[C@H](Cc1ccc2ccccc2c1)C(=O)N[C@H](Cc1ccc(Cl)cc1)C(=O)N[C@H](Cc1cccnc1)C(=O)N[C@@H](CO)C(=O)N[C@@H](Cc1ccc(O)cc1)C(=O)N[C@H](CCCNC(N)=O)C(=O)N[C@@H](CC(C)C)C(=O)N[C@@H](CCCNC(=N)N)C(=O)N1CCC[C@H]1C(=O)N[C@H](C)C(N)=O` [Cetrorelix, reference compound] (Ac-[d2Nal][dPhe(4-Cl)][d3Pal]SY[dCit]LRP[dA]-NH2) was tested. Which “block of GnRH-I induced upregulation in gene expression of the 67 kDa LR” value (normal human T-cells [1]; 100 nM Cetrorelix + 10 nM GnRH-I (FIG. 2D)) did it give?
**A.** Its value is “blocked”.

**Q.** And the “block of GnRH-II effect on gene expression of the 67 kDa LR” value (normal human T-cells [1]; 100 nM Cetrorelix + 10 nM GnRH-II (FIG. 2D))?
**A.** Its value is “did not block”.

**Q.** And the “block of GnRH-I induced upregulation in surface expression of the 67 kDa LR” value (normal human T-cells [2]; 100 nM Cetrorelix + 10 nM GnRH-I (FIG. 2E))?
**A.** Its value is “blocked”.

**Q.** What about the “block of GnRH-II effect on surface expression of the 67 kDa LR” value (normal human T-cells [2]; 100 nM Cetrorelix + 10 nM GnRH-II (FIG. 2E)) of the same compound?
**A.** Its value is “did not block”.

— US7951775B2, “Methods and pharmaceutical compositions for GnRH-I and GnRH-II modulation of T-cell activity, adhesion, migration and extravasation” (priority 2001, dated 2011)
